# Laboratory results: patent US20120121591A1 (priority 2009, published 2012)
# Read-outs that look alike come from different tables or passages of the source.
# Tests used:
# Type in all cases: cell-based
# hKv1.3 = hKv1.3 (Homo sapiens, UniProt P22001); assay: cell-based; conditions: Kv1.3 (IWQ) IC50 (nM, Avg)
# [1] = test system: IFN-g secretion from T cells in human whole blood
# [2] = test system: IL-2 secretion from T cells in human whole blood; conditions: read-out: WB (IL-2) IC50 (nM, Avg)
# [3] = read-out: WB (IFNg) IC50 (nM, Avg)
# hKv1.3, sequence (P22001 whole entry): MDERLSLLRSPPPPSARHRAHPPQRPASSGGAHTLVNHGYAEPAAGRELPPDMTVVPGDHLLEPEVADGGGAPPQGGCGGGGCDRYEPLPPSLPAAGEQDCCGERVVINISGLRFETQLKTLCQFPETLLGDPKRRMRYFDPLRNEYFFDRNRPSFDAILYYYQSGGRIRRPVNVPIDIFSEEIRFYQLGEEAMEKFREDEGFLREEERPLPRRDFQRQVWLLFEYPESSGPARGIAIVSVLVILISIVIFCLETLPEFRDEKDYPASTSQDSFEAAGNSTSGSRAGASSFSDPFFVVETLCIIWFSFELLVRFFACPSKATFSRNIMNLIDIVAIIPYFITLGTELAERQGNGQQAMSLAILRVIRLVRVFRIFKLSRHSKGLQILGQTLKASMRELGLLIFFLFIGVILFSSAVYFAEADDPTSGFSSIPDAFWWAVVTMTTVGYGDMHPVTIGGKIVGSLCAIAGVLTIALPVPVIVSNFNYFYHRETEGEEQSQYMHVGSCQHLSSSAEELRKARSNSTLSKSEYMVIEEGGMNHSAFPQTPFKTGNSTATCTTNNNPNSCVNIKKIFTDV
Structure (SMILES),IC50 (hKv1.3),"IC50 [1, 3]",IC50 [2],"IC50 ([1]; read-out: WB (IFNg) IC5- (nM, Avg))"
"CC[C@H](C)[C@@H]1NC(=O)[C@@H](NC(=O)[C@H](CO)NC(=O)[C@@H](N)CCCNC(=N)N)CSSC[C@@H](C(N)=O)NC(=O)[C@H]([C@@H](C)O)NC(=O)CNC(=O)[C@@H]2CSSC[C@@H]3NC(=O)[C@H](CCCCN)NC(=O)[C@H](Cc4ccccc4)NC(=O)[C@H](C)NC(=O)[C@H]([C@@H](C)O)NC(=O)[C@H](CSSC[C@H](NC(=O)[C@H](Cc4ccccc4)NC(=O)[C@H](CO)NC(=O)[C@H](CC(C)C)NC(=O)[C@H](CCCNC(=N)N)NC(=O)[C@H](Cc4ccc(O)cc4)NC(=O)[C@H](CCCCN)NC(=O)[C@H](CC[S+](C)[O-])NC(=O)[C@H](CO)NC(=O)[C@H](Cc4c[nH]cn4)NC(=O)[C@H](CCCCN)NC3=O)C(=O)N[C@@H](CCCNC(=N)N)C(=O)N[C@@H](CCCCN)C(=O)N[C@@H]([C@@H](C)O)C(=O)N2)NC(=O)[C@H](CCCNC(=N)N)NC(=O)[C@H](CO)NC(=O)[C@H](CCCCN)NC(=O)[C@@H]2CCCN2C(=O)[C@H]([C@@H](C)CC)NC(=O)[C@H]([C@@H](C)O)NC(=O)[C@H](CC(=O)O)NC1=O (stereo partly drawn) [[Lys16, Met(O)21]ShK-amide]",0.106 nM,0.289 nM,0.24 nM,–
"CCCC[C@@H]1NC(=O)[C@H](CO)NC(=O)[C@H](Cc2c[nH]cn2)NC(=O)[C@H](CCCCN)NC(=O)[C@@H]2CSSC[C@@H]3NC(=O)[C@H]([C@@H](C)O)NC(=O)[C@H](CCCNC(=N)N)NC(=O)[C@H](CCCNC(=N)N)NC(=O)[C@H](CSSC[C@H](NC(=O)[C@H](CCCNC(=N)N)NC(=O)[C@H](CO)NC(=O)[C@H](CCCCN)NC(=O)[C@@H]4CCCN4C(=O)[C@H]([C@@H](C)CC)NC(=O)[C@H]([C@@H](C)O)NC(=O)[C@H](CC(=O)O)NC(=O)[C@H](CCC(=O)O)NC(=O)[C@@H](NC(=O)[C@H](CO)NC(=O)[C@@H](N)CCCNC(=N)N)CSSC[C@@H](C(N)=O)NC(=O)[C@H]([C@@H](C)O)NC(=O)CNC3=O)C(=O)N[C@@H]([C@@H](C)O)C(=O)N[C@@H](C)C(=O)N[C@@H](C)C(=O)N[C@@H](CCCCN)C(=O)N2)NC(=O)[C@H](Cc2ccccc2)NC(=O)[C@H](CO)NC(=O)[C@H](CC(C)C)NC(=O)[C@H](CCCNC(=N)N)NC(=O)[C@H](Cc2ccc(O)cc2)NC(=O)[C@H](CCCCN)NC1=O [[Glu4,Ala15,Lys16,Nle21, Arg30]ShK-amide]",0.118 nM,0.816 nM,0.647 nM,–
"CCC[C@@H]1NC(=O)[C@H](CO)NC(=O)[C@H](Cc2c[nH]cn2)NC(=O)[C@H](CCCCN)NC(=O)[C@@H]2CSSC[C@@H]3NC(=O)[C@H]([C@@H](C)O)NC(=O)[C@H](CCCCN)NC(=O)[C@H](CCCNC(=N)N)NC(=O)[C@H](CSSC[C@H](NC(=O)[C@H](CCCNC(=N)N)NC(=O)[C@H](CO)NC(=O)[C@H](CCCCN)NC(=O)[C@@H]4CCCN4C(=O)[C@H]([C@@H](C)CC)NC(=O)[C@H]([C@@H](C)O)NC(=O)[C@H](CC(=O)O)NC(=O)[C@H]([C@@H](C)CC)NC(=O)[C@@H](NC(=O)[C@H](CO)NC(=O)[C@@H](N)CCCNC(=N)N)CSSC[C@@H](C(N)=O)NC(=O)[C@H]([C@@H](C)O)NC(=O)CNC3=O)C(=O)N[C@@H]([C@@H](C)O)C(=O)N[C@@H](C)C(=O)N[C@@H](Cc3ccccc3)C(=O)N[C@@H](CCCCN)C(=O)N2)NC(=O)[C@H](Cc2ccccc2)NC(=O)[C@H](CO)NC(=O)[C@H](CC(C)C)NC(=O)[C@H](CCCNC(=N)N)NC(=O)[C@H](Cc2ccc(O)cc2)NC(=O)[C@H](CCCCN)NC1=O [[Lys16, Nva21]ShK-amide]",0.47 nM,0.932 nM,0.486 nM,–
CC[C@H](C)[C@@H]1NC(=O)[C@@H](NC(=O)[C@H](CO)NC(=O)[C@@H](N)CCCNC(=N)N)CSSC[C@@H](C(=O)O)NC(=O)[C@H]([C@@H](C)O)NC(=O)CNC(=O)[C@@H]2CSSC[C@@H]3NC(=O)[C@H](CCC(N)=O)NC(=O)[C@H](Cc4ccccc4)NC(=O)[C@H](C)NC(=O)[C@H]([C@@H](C)O)NC(=O)[C@H](CSSC[C@H](NC(=O)[C@H](Cc4ccccc4)NC(=O)[C@H](CO)NC(=O)[C@H](CC(C)C)NC(=O)[C@H](CCCNC(=N)N)NC(=O)[C@H](Cc4ccc(O)cc4)NC(=O)[C@H](CCCCN)NC(=O)[C@H](CCSC)NC(=O)[C@H](CO)NC(=O)[C@H](Cc4c[nH]cn4)NC(=O)[C@H](CCCCN)NC3=O)C(=O)N[C@@H](CCCNC(=N)N)C(=O)N[C@@H](CCCCN)C(=O)N[C@@H]([C@@H](C)O)C(=O)N2)NC(=O)[C@H](CCCNC(=N)N)NC(=O)[C@H](CO)NC(=O)[C@H](CCCCN)NC(=O)[C@@H]2CCCN2C(=O)[C@H](CCCCN)NC(=O)[C@H]([C@@H](C)O)NC(=O)[C@H](CC(=O)O)NC1=O [[Lys7]ShK],0.792 nM,13.5 nM,4.67 nM,–
"CC[C@H](C)[C@@H]1NC(=O)[C@@H](NC(=O)[C@H](CO)NC(=O)[C@@H](N)CCCNC(=N)N)CSSC[C@@H](C(N)=O)NC(=O)[C@H]([C@@H](C)O)NC(=O)CNC(=O)[C@@H]2CSSC[C@@H]3NC(=O)[C@H](CCCCN)NC(=O)[C@H](Cc4ccccc4)NC(=O)[C@H](C)NC(=O)[C@H]([C@@H](C)O)NC(=O)[C@H](CSSC[C@H](NC(=O)[C@H](Cc4ccccc4)NC(=O)[C@H](Cc4cccc5ccccc45)NC(=O)[C@H](CC(C)C)NC(=O)[C@H](CCCNC(=N)N)NC(=O)[C@H](Cc4ccc(O)cc4)NC(=O)[C@H](CCCCN)NC(=O)[C@H](CCSC)NC(=O)[C@H](CO)NC(=O)[C@H](Cc4c[nH]cn4)NC(=O)[C@H](CCCCN)NC3=O)C(=O)N[C@@H](CCCCN)C(=O)N[C@@H](CCCCN)C(=O)N[C@@H]([C@@H](C)O)C(=O)N2)NC(=O)[C@H](CCCNC(=N)N)NC(=O)[C@H](CO)NC(=O)[C@H](CCCCN)NC(=O)[C@@H]2CCCN2C(=O)[C@H]([C@@H](C)CC)NC(=O)[C@H]([C@@H](C)O)NC(=O)[C@H](CC(=O)O)NC1=O [[Lys16,29; 1-Nal26]ShK-amide]",0.341 nM,1.98 nM,0.808 nM,–
"CCCC[C@@H]1NC(=O)[C@H](CO)NC(=O)[C@H](Cc2c[nH]cn2)NC(=O)[C@H](CCCCN)NC(=O)[C@@H]2CSSC[C@@H]3NC(=O)[C@H]([C@@H](C)O)NC(=O)[C@H](CCCNC(=N)N)NC(=O)[C@H](CCCNC(=N)N)NC(=O)[C@H](CSSC[C@H](NC(=O)[C@H](CCCNC(=N)N)NC(=O)[C@H](CO)NC(=O)[C@H](CCCCN)NC(=O)[C@@H]4CCCN4C(=O)[C@H]([C@@H](C)CC)NC(=O)[C@H]([C@@H](C)O)NC(=O)[C@H](CC(=O)O)NC(=O)[C@H]([C@@H](C)CC)NC(=O)[C@@H](NC(=O)[C@H](CO)NC(=O)[C@@H](N)CCCNC(=N)N)CSSC[C@@H](C(N)=O)NC(=O)[C@H]([C@@H](C)O)NC(=O)CNC3=O)C(=O)N[C@@H]([C@@H](C)O)C(=O)N[C@@H](C)C(=O)N[C@@H](Cc3ccccc3)C(=O)N[C@@H](CCCCN)C(=O)N2)NC(=O)[C@H](Cc2ccccc2)NC(=O)[C@H](CO)NC(=O)[C@H](CC(C)C)NC(=O)[C@H](CCCNC(=N)N)NC(=O)[C@H](Cc2ccc(O)cc2)NC(=O)[C@H](CCCCN)NC1=O [[Lys16, Nle21,Arg30]ShK-amide]",0.423 nM,1.9 nM,0.953 nM,–
"CC[C@H](C)[C@@H]1NC(=O)[C@H]([C@@H](C)O)NC(=O)[C@H](CC(=O)O)NC(=O)[C@H](CCC(=O)O)NC(=O)[C@@H](NC(=O)[C@H](CO)NC(=O)[C@@H](N)CCCNC(=N)N)CSSC[C@@H](C(=O)O)NC(=O)[C@H]([C@@H](C)O)NC(=O)CNC(=O)[C@@H]2CSSC[C@@H]3NC(=O)[C@H](CCCCN)NC(=O)[C@H](C)NC(=O)[C@H](C)NC(=O)[C@H]([C@@H](C)O)NC(=O)[C@H](CSSC[C@H](NC(=O)[C@H](Cc4ccccc4)NC(=O)[C@H](CO)NC(=O)[C@H](CC(C)C)NC(=O)[C@H](CCCNC(=N)N)NC(=O)[C@H](Cc4ccc(O)cc4)NC(=O)[C@H](CCCCN)NC(=O)[C@H](CCSC)NC(=O)[C@H](CO)NC(=O)[C@H](Cc4c[nH]cn4)NC(=O)[C@H](CCCCN)NC3=O)C(=O)N[C@@H](CCCNC(=N)N)C(=O)N[C@@H](CCCNC(=N)N)C(=O)N[C@@H]([C@@H](C)O)C(=O)N2)NC(=O)[C@H](CCCNC(=N)N)NC(=O)[C@H](CCCNC(=N)N)NC(=O)[C@H](CCCCN)NC(=O)[C@@H]2CCCN2C1=O [[Glu4,Arg10,30,A1a15,Lys16]ShK]",0.14 nM,0.305 nM,0.209 nM,–
CC[C@H](C)[C@@H]1NC(=O)[C@@H](NC(=O)[C@H](CO)NC(=O)[C@@H](N)CCCNC(=N)N)CSSC[C@@H](C(=O)O)NC(=O)[C@H]([C@@H](C)O)NC(=O)CNC(=O)[C@@H]2CSSC[C@@H]3NC(=O)[C@H](CCC(N)=O)NC(=O)[C@H](Cc4ccccc4)NC(=O)[C@H](C)NC(=O)[C@H]([C@@H](C)O)NC(=O)[C@H](CSSC[C@H](NC(=O)[C@H](Cc4ccccc4)NC(=O)[C@H](CO)NC(=O)[C@H](CC(C)C)NC(=O)[C@H](CCCNC(=N)N)NC(=O)[C@H](Cc4ccc(O)cc4)NC(=O)[C@H](CCCCN)NC(=O)[C@H](CCSC)NC(=O)[C@H](CO)NC(=O)[C@H](Cc4c[nH]cn4)NC(=O)[C@H](CCCCN)NC3=O)C(=O)N[C@@H](CCCNC(=N)N)C(=O)N[C@@H](CCC(=O)O)C(=O)N[C@@H]([C@@H](C)O)C(=O)N2)NC(=O)[C@H](CCCNC(=N)N)NC(=O)[C@H](CO)NC(=O)[C@H](CCCCN)NC(=O)[C@@H]2CCCN2C(=O)[C@H]([C@@H](C)CC)NC(=O)[C@H]([C@@H](C)O)NC(=O)[C@H](CC(=O)O)NC1=O [[Glu30]ShK],0.272 nM,–,0.019 nM,0.043 nM
